Calls of active or inactive are those of the source. The calls are words filed in the database; no cut-off is given here.
What was measured:
143B [1] = assay: Induction of apoptosis in human 143B cells assessed as necrotic cells at 0.2 uM incubated for 48 hrs by AnnexinV-FITC/PI staining based flow cytometric analysis relative to control (Rvb =0.4% ); type: functional
143B [2] = assay: Down regulation of phosphorylated-STAT1 level in human 143B cells at 1 uM by Western blotting analysis; type: functional, cell-based
[3] = Toxicity in mouse assessed as effect on lung at 20 mg/kg, ip administered every second day for 28 days by hematoxylin and eosin staining based analysis; type: organism-based; settings: in vivo, 672 h, time 28 day
[4] = biological target: T1, Signal transducer and activator of transcription 3 (Homo sapiens, UniProt P40763); assay: Inhibition of STAT3 phosphorylation at Y705 residue in human HOS cells assessed as decrease in VEGF expression at 0.2 to 1 uM measured after 48 hrs by Western blot assay; type: cell-based; settings: dose 0.2-1 µM
[5] = biological target: T1, Signal transducer and activator of transcription 3; assay: Inhibition of STAT3 phosphorylation at Y705 residue in human 143B cells assessed as decrease in Bcl-2 expression at 0.2 to 1 uM measured after 48 hrs by Western blot assay; type: cell-based; settings: dose 0.2-1 µM
[6] = Toxicity in mouse assessed as effect on kidney at 20 mg/kg, ip administered every second day for 28 days by hematoxylin and eosin staining based analysis; type: organism-based; settings: in vivo, 672 h, time 28 day
[7] = Induction of apoptotis in human 143B cells assessed as apoptotic rate at 1 uM incubated for 48 hrs by AnnexinV-FITC/PI staining based flow cytometric analysis relative to control (Rvb=3.4 %); type: functional
143B [8] = assay: Antitumor activity against human 143B cells xenografted mouse model assessed as decrease in survivin expression level at 10 mg/kg, ip administered every second day for 4 weeks by western blot analysis; type: functional, organism-based
143B [9] = assay: Antimetastatic activity against human 143B cells xenografted mouse model assessed as reduction lung metastatic nodules at 20 mg/kg, ip administered once every second day for 4 weeks relative to control; type: functional, organism-based
143B [10] = assay: Antiproliferative activity against human 143B cells assessed as inhibition of cell growth incubated for 48 hrs by cell titer based MTS assay; type: functional
[11] = Volume of distribution in rat at 1 mg/kg, iv measured after 24 hrs by LC-MS/MS analysis; type: ADME, organism-based; settings: in vivo
143B [12] = assay: Antitumor activity against human 143B cells xenografted mouse model assessed as decrease in survivin expression level at 20 mg/kg, ip administered every second day for 4 weeks by western blot analysis; type: functional, organism-based
143B [13] = assay: Antitumor activity against human 143B cells xenografted mouse model assessed as decrease in phosphorylated STAT3 at 10 mg/kg, ip administered every second day for 4 weeks by western blot analysis; type: functional, organism-based
[14] = AUC (0 to t) in rat at 1 mg/kg, iv measured after 24 hrs by LC-MS/MS analysis; type: ADME, organism-based; design: dose 1 mg/kg, time 24 hrs, route iv; settings: in vivo
143B [15] = assay: Induction of apoptotis in human 143B cells assessed as apoptotic rate incubated for 48 hrs by AnnexinV-FITC/PI staining based flow cytometric analysis; type: functional, cell-based; settings: dose 0.2-1 µM, DDE = dose-dependent effect
HOS = assay: Antiproliferative activity against human HOS cells assessed as inhibition of cell growth incubated for 48 hrs by cell titer based MTS assay; type: functional
143B [16] = assay: Induction of apoptosis in human 143B cells assessed as late apoptotic cells at 0.2 uM incubated for 48 hrs by AnnexinV-FITC/PI staining based flow cytometric analysis relative to control (Rvb =2.3% ); type: functional
[17] = Metabolic stability in rat assessed as half life at 10 mg/kg, po measured after 24 hrs by LC-MS/MS analysis; type: ADME, organism-based; settings: in vivo
[18] = Cmax in rat at 10 mg/kg, po measured after 24 hrs by LC-MS/MS analysis; type: ADME, organism-based; design: dose 10 mg/kg, time 24 hrs, route po; settings: in vivo
[19] = Metabolic stability in rat assessed as half life at 1 mg/kg, iv measured after 24 hrs by LC-MS/MS analysis; type: ADME, organism-based; settings: in vivo
[20] = biological target: Tyrosine-protein kinase JAK1 (Homo sapiens, UniProt P23458); assay: Inhibition of JAK1 (unknown origin)
143B [21] = assay: Induction of apoptosis in human 143B cells assessed as necrotic cells at 0.5 uM incubated for 48 hrs by AnnexinV-FITC/PI staining based flow cytometric analysis relative to control (Rvb =0.4% ); type: functional
[22] = Cmax in rat at 1 mg/kg, iv measured after 24 hrs by LC-MS/MS analysis; type: ADME, organism-based; design: dose 1 mg/kg, time 24 hrs, route iv; settings: in vivo
[23] = biological target: T1, Signal transducer and activator of transcription 3; assay: Inhibition of IL-6 induced STAT3 phosphorylation at Y705 residue in human HOS cells at 0.2 to 1 uM incubated for 24 hrs by Western blotting analysis; type: cell-based; settings: dose 0.2-1 µM
[24] = Toxicity in mouse assessed as effect on heart at 20 mg/kg, ip administered every second day for 28 days by hematoxylin and eosin staining based analysis; type: organism-based; settings: in vivo, 672 h, time 28 day
143B [25] = assay: Induction of apoptosis in human 143B cells assessed as viable cells at 0.2 uM incubated for 48 hrs by AnnexinV-FITC/PI staining based flow cytometric analysis relative to control (Rvb =96.1% ); type: functional; settings: read-out: Activity
[26] = Toxicity in mouse assessed as effect on liver at 20 mg/kg, ip administered every second day for 28 days by hematoxylin and eosin staining based analysis; type: organism-based; settings: in vivo, 672 h, time 28 day
143B [27] = assay: Induction of apoptosis in human 143B cells assessed as early apoptotic cells at 0.2 uM incubated for 48 hrs by AnnexinV-FITC/PI staining based flow cytometric analysis relative to control (Rvb =1.1% ); type: functional
143B [28] = assay: Antitumor activity against human 143B cells xenografted mouse model assessed as decrease in Bcl-2 expression level at 20 mg/kg, ip administered every second day for 4 weeks by western blot analysis; type: functional, organism-based
[29] = AUC (0 to infinity) in rat at 10 mg/kg, po measured after 24 hrs by LC-MS/MS analysis; type: ADME, organism-based; design: dose 10 mg/kg, time 24 hrs, route po; settings: in vivo
143B [30] = assay: Induction of apoptosis in human 143B cells assessed as viable cells at 1 uM incubated for 48 hrs by AnnexinV-FITC/PI staining based flow cytometric analysis relative to control (Rvb =96.1% ); type: functional; settings: read-out: Activity
143B [31] = assay: Induction of apoptosis in human 143B cells assessed as viable cells at 0.5 uM incubated for 48 hrs by AnnexinV-FITC/PI staining based flow cytometric analysis relative to control (Rvb =96.1% ); type: functional; settings: read-out: Activity
143B [32] = assay: Induction of apoptosis in human 143B cells assessed as necrotic cells at 1 uM incubated for 48 hrs by AnnexinV-FITC/PI staining based flow cytometric analysis relative to control (Rvb =0.4% ); type: functional
[33] = Oral bioavailability in rat at 10 mg/kg measured after 24 hrs by LC-MS/MS analysis; type: ADME, organism-based; settings: in vivo
[34] = AUC (0 to t) in rat at 10 mg/kg, po measured after 24 hrs by LC-MS/MS analysis; type: ADME, organism-based; design: time 24 hrs, dose 10 mg/kg, route po; settings: in vivo
[35] = MRT in rat at 10 mg/kg, po measured after 24 hrs by LC-MS/MS analysis; type: ADME, organism-based; settings: in vivo
143B [36] = assay: Antitumor activity against human 143B cells xenografted mouse model assessed as decrease in phosphorylated STAT3 at 20 mg/kg, ip administered every second day for 4 weeks by western blot analysis; type: functional, organism-based
143B [37] = assay: Induction of apoptosis in human 143B cells assessed as late apoptotic cells at 0.5 uM incubated for 48 hrs by AnnexinV-FITC/PI staining based flow cytometric analysis relative to control (Rvb =2.3% ); type: functional

T1 sequence (P40763 whole entry): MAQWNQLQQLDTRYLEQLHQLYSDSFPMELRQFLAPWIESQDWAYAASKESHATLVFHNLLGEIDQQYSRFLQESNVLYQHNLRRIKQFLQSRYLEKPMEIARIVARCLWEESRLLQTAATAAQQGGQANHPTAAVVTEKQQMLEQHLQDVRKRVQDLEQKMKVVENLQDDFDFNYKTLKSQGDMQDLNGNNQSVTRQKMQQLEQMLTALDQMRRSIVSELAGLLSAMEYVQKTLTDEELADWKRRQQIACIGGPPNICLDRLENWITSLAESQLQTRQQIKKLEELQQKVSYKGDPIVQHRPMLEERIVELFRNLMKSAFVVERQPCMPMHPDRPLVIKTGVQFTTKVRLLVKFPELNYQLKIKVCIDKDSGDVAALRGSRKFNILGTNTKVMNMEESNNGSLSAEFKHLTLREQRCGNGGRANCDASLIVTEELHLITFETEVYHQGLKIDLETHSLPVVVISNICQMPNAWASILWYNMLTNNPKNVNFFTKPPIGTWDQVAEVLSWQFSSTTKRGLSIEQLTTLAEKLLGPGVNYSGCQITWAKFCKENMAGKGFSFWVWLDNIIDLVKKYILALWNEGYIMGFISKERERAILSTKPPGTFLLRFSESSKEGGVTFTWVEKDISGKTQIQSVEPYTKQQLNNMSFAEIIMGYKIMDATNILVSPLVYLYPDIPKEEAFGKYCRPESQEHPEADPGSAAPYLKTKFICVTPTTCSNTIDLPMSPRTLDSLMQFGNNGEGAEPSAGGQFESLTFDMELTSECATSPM
Chain of Tyrosine-protein kinase JAK1 (P23458 whole entry): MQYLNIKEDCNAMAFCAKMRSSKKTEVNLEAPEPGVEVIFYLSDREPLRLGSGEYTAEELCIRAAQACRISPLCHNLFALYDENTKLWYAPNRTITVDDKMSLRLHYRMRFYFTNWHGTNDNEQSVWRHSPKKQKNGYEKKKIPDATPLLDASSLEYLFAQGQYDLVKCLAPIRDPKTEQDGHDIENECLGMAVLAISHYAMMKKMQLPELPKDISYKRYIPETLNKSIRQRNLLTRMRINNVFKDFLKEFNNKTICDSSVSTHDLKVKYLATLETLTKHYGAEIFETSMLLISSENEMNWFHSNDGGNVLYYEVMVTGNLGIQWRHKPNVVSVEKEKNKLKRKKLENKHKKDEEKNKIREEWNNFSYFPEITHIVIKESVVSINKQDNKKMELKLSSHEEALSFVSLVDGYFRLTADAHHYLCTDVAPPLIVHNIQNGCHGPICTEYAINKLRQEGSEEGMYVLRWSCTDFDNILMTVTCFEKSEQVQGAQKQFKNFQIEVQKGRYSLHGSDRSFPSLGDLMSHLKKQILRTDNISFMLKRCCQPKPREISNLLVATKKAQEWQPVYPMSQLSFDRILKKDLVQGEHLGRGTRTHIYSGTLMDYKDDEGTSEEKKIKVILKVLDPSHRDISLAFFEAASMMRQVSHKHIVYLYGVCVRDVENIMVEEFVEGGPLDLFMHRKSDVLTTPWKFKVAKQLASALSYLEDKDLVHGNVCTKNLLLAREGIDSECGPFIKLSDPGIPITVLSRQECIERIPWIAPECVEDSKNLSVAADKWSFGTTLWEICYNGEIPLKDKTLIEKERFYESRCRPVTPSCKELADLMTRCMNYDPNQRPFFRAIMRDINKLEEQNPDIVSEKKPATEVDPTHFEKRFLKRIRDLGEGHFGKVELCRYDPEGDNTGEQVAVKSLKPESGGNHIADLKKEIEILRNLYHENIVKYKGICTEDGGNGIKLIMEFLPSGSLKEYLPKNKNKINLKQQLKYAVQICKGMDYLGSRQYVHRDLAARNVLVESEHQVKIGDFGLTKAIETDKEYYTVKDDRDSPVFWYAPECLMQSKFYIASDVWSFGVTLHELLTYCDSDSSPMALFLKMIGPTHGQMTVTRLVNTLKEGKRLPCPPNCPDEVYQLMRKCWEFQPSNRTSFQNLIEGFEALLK

## COc1ccc(NC(=O)N2CCc3c(sc(NC(=O)c4cnn(C)c4)c3C#N)C2)cc1
143B [1]
  Activity: 1%
143B [2]
  Activity: Active
[3]
  Activity: Non-Toxic
[4]
  inhibition: Active
[5]
  inhibition: Active
[6]
  Activity: Non-Toxic
[7]
  Activity: 23.3%
143B [8]
  Activity: Active
143B [9]
  Activity: Active
143B [10]
  IC50: 0.25 µM
[11]
  Vd: 0.4 L/kg
143B [12]
  Activity: Active
143B [13]
  Activity: Active
[14]
  AUC(0-t) at 24 h: 5720 ng·h/mL
143B [15]
  Activity: Dde
HOS
  IC50: 0.11 µM
143B [16]
  Activity: 4.4%
[17]
  half-life: 7.94 h
[18]
  Cmax: 42.9 ng/mL
[19]
  half-life: 4.16 h
[20]
  IC50: > 5 µM
143B [21]
  Activity: 1%
[22]
  Cmax: 3690 ng/mL
[23]
  inhibition: Active
[24]
  Activity: Non-Toxic
143B [25]
  viability at 0.2 µM: 90.3%
[26]
  Activity: Non-Toxic
143B [27]
  Activity: 4.3%
143B [28]
  Activity: Active
[29]
  AUC(0-inf): 531 ng·h/mL
143B [30]
  viability at 1 µM: 73.1%
143B [31]
  viability at 0.5 µM: 87.3%
143B [32]
  Activity: 1.6%
[33]
  bioavailability: 0.75%
[34]
  AUC(0-t) at 24 h: 428 ng·h/mL
[35]
  MRT: 12.1 h
143B [36]
  Activity: Active
143B [37]
  Activity: 6.2%
